Experimental findings from patent US8691991B2 (priority 2004, dated 2014) are described below.

For this experiment, the system named is Pseudotyped HIV vector. Briefly: Pseudotyped HIV vector expressing luciferase reporter assay. Format: cell-based. The following applies: Human immunodeficiency virus 1. As to the method:
Pseudotyped HIV Vector Expressing Luciferase Reporter Assay
Expression of luciferase reporter following viral integration was performed essentially as described in Jármy, G. et al., J. Medical Virology, 64:223-231, 2001.
In general, IC50 refers to the concentration needed to halve the response being measured. Low readings indicate inhibition by little substance, high ones a need for much substance. With `CC(C)(CO)CNC(=O)c1c(O)c2ncc(Cc3ccc(F)cc3)cc2[nH]c1=O` [Example 85, 7-[(4-Fluorophenyl)methyl]-4-hydroxy-N-(3-hydroxy-2,2-dimethylpropyl)-2-oxo-1,2-dihydro-1,5-naphthyridine-3-carboxamide], the half-maximal inhibitory concentration (IC50) is below 0.01 µM.

Take `Cn1c(=O)c(C(=O)NC[C@@H](O)CO)c(O)c2ncc(Cc3ccc(F)cc3)cc21` [Example 516, N-[(2R)-2,3-Dihydroxypropyl]-7-[(4-fluorophenyl)methyl]-4-hydroxy-1-methyl-2-oxo-1,2-dihydro-1,5-naphthyridine-3-carboxamide]: the IC50 is below 0.01 µM.

`Cn1c(=O)c(C(=O)NCCN2CCOCC2)c(O)c2ncc(Cc3ccc(F)cc3)cc21` [Example 96, 7-[(4-Fluorophenyl)methyl]-4-hydroxy-1-methyl-N-[2-(4-morpholinyl)ethyl]-2-oxo-1,2-dihydro-1,5-naphthyridine-3-carboxamide]: the IC50 is below 0.01 µM.

Consider `O=C(NCCOCCO)c1c(O)c2ncc(Cc3ccc(F)cc3)cc2[nH]c1=O` [Example 86, 7-[(4-Fluorophenyl)methyl]-4-hydroxy-N-{2-[(2-hydroxyethyl)oxy]ethyl}-2-oxo-1,2-dihydro-1,5-naphthyridine-3-carboxamide], for which the IC50 is below 0.01 µM.

The compound `CNC(=O)c1c(O)c2ncc(Cc3ccc(F)cc3)cc2n(CC(=O)N(C)C)c1=O` [Example 237, 1-[2-(Dimethylamino)-2-oxoethyl]-7-(4-fluorobenzyl)-4-hydroxy-N-methyl-2-oxo-1,2-dihydro-1,5-naphthyridine-3-carboxamide] showed a half-maximal inhibitory concentration (IC50) below 0.01 µM.

Take `COCCNC(=O)c1c(O)c2ncc(Cc3ccc(F)cc3)cc2n(CC(N)=O)c1=O` [Example 162, 1-(2-Amino-2-oxoethyl)-7-[(4-fluorophenyl)methyl]-4-hydroxy-N-[2-(methyloxy)ethyl]-2-oxo-1,2-dihydro-1,5-naphthyridine-3-carboxamide]: the concentration for half-maximal inhibition (IC50) is below 0.01 µM.

Consider `O=C(NCCO)c1c(O)c2ncc(Cc3ccc(F)cc3)cc2n(CC(=O)N2CCOCC2)c1=O` [Example 95, 7-[(4-Fluorophenyl)methyl]-4-hydroxy-N-(2-hydroxyethyl)-1-[2-(4-morpholinyl)-2-oxoethyl]-2-oxo-1,2-dihydro-1,5-naphthyridine-3-carboxamide], for which the half-maximal inhibitory concentration (IC50) lay within 0.01 to 0.025 µM.

In the case of `COCCNC(=O)c1c(O)c2ncc(Cc3ccccc3)cc2n(Cc2nccs2)c1=O` [Example 62, 7-Benzyl-4-hydroxy-N-(2-methoxyethyl)-2-oxo-1-(1,3-thiazol-2-ylmethyl)-1,2-dihydro-1,5-naphthyridine-3-carboxamide], the IC50 was below 0.01 µM.

Take `O=C(NCCN1CCOCC1)c1c(O)c2ncc(Cc3ccc(F)cc3)cc2n(CCN2CCCC2=O)c1=O` [Example 10, 7-(4-Fluorobenzyl)-4-hydroxy-N-(2-morpholin-4-ylethyl)-2-oxo-1-[2-(2-oxopyrrolidin-1-yl)ethyl]-1,2-dihydro-1,5-naphthyridine-3-carboxamide]: the IC50 is below 0.01 µM.

With `COCCNC(=O)c1c(O)c2ncc(Cc3ccccc3)cc2[nH]c1=O` [Example 17], the IC50 is 0.01 to 0.025 µM.

`O=C(NCCCN1CCCC1=O)c1c(O)c2ncc(Cc3ccc(F)cc3)cc2n(CC(=O)N2CCOCC2)c1=O` [Example 94, 7-[(4-Fluorophenyl)methyl]-4-hydroxy-1-[2-(4-morpholinyl)-2-oxoethyl]-2-oxo-N-[3-(2-oxo-1-pyrrolidinyl)propyl]-1,2-dihydro-1,5-naphthyridine-3-carboxamide]: the IC50 is 0.01 to 0.025 µM.

Regarding `COCCN(C)C(=O)Cn1c(=O)c(C(=O)NC(C)CO)c(O)c2ncc(Cc3ccc(F)cc3)cc21` (racemic) [Example 105, (±)-7-[(4-Fluorophenyl)methyl]-4-hydroxy-N-[2-hydroxy-1-methylethyl]-1-(2-{methyl[2-(methyloxy)ethyl]amino}-2-oxoethyl)-2-oxo-1,2-dihydro-1,5-naphthyridine-3-carboxamide], the IC50 is below 0.01 µM.

Compound `O=C(NCCO)c1c(O)c2ncc(Cc3ccc(F)cc3)cc2n(-c2ccc(F)cc2)c1=O` [Example 200, 1-(4-Fluorophenyl)-7-[(4-fluorophenyl)methyl]-4-hydroxy-N-(2-hydroxyethyl)-2-oxo-1,2-dihydro-1,5-naphthyridine-3-carboxamide] gave a half-maximal inhibitory concentration (IC50) below 0.01 µM.

For `C[C@@H](O)CNC(=O)c1c(O)c2ncc(Cc3ccc(F)cc3)cc2n(CCN2CCCC2=O)c1=O` [Example 429, 7-(4-Fluorobenzyl)-4-hydroxy-N-[(2R)-2-hydroxypropyl]-2-oxo-1-[2-(2-oxopyrrolidin-1-yl)ethyl]-1,2-dihydro-1,5-naphthyridine-3-carboxamide], the concentration for half-maximal inhibition (IC50) was below 0.01 µM.

`COCCNC(=O)c1c(O)c2ncc(Cc3ccccc3)cc2n(CC(=O)N2CCOCC2)c1=O` [Example 12]: the concentration for half-maximal inhibition (IC50) is below 0.01 µM.

For the compound `O=C(NCCN1CCOCC1)c1c(O)c2ncc(Cc3ccc(F)cc3)cc2[nH]c1=O` [Example 36, 7-[(4-Fluorophenyl)methyl]-4-hydroxy-N-[2-(4-morpholinyl)ethyl]-2-oxo-1,2-dihydro-1,5-naphthyridine-3-carboxamide], the IC50 is below 0.01 µM.

As for `COCCNC(=O)c1c(O)c2ncc(Cc3ccc(F)cc3)cc2n(Cc2ccc(S(C)(=O)=O)cc2)c1=O` [Example 64, 7-(4-Fluorobenzyl)-4-hydroxy-N-(2-methoxyethyl)-1-[4-(methylsulfonyl)benzyl]-2-oxo-1,2-dihydro-1,5-naphthyridine-3-carboxamide], the IC50 was below 0.01 µM.

In the case of `O=C(NCCCN1CCOCC1)c1c(O)c2ncc(Cc3ccc(F)cc3)cc2n(CC(=O)N2CCOCC2)c1=O` [Example 93, 7-[(4-Fluorophenyl)methyl]-4-hydroxy-1-[2-(4-morpholinyl)-2-oxoethyl]-N-[3-(4-morpholinyl)propyl]-2-oxo-1,2-dihydro-1,5-naphthyridine-3-carboxamide], the concentration for half-maximal inhibition (IC50) lay in the range of 0.01 to 0.025 µM.

Take `COCCNC(=O)c1c(O)c2ncc(Cc3ccc(F)cc3)cc2n(CCN2CCCC2=O)c1=O` [Example 49, 7-(4-Fluorobenzyl)-4-hydroxy-N-(2-methoxyethyl)-2-oxo-1-[2-(2-oxopyrrolidin-1-yl)ethyl]-1,2-dihydro-1,5-naphthyridine-3-carboxamide]: the 50% inhibitory concentration (IC50) is below 0.01 µM.

`COCCNC(=O)c1c(O)c2ncc(Cc3ccc(F)cc3)cc2n(C)c1=O` [Example 98, 7-[(4-Fluorophenyl)methyl]-4-hydroxy-1-methyl-N-[2-(methyloxy)ethyl]-2-oxo-1,2-dihydro-1,5-naphthyridine-3-carboxamide]: the half-inhibitory concentration (IC50) is below 0.01 µM.

`Cn1c(=O)c(C(=O)NCCO)c(O)c2ncc(Cc3ccc(F)cc3)cc21` [Example 101, 7-[(4-Fluorophenyl)methyl]-4-hydroxy-N-(2-hydroxyethyl)-1-methyl-2-oxo-1,2-dihydro-1,5-naphthyridine-3-carboxamide]: the half-maximal inhibitory concentration (IC50) is below 0.01 µM.

In turn, `COCCNC(=O)c1c(O)c2ncc(Cc3ccccc3)cc2n(Cc2nccn2C)c1=O` [Example 50, 7-Benzyl-4-hydroxy-N-(2-methoxyethyl)-1-[(1-methyl-1H-imidazol-2-yl)methyl]-2-oxo-1,2-dihydro-1,5-naphthyridine-3-carboxamide] had a half-maximal inhibitory concentration (IC50) below 0.01 µM.

As for `COCCNC(=O)c1c(O)c2ncc(Cc3ccccc3)cc2n(Cc2ccc(S(C)(=O)=O)cc2)c1=O` [Example 45, 7-Benzyl-4-hydroxy-N-(2-methoxyethyl)-1-[4-(methylsulfonyl)benzyl]-2-oxo-1,2-dihydro-1,5-naphthyridine-3-carboxamide], the IC50 is below 0.01 µM.
